Results on 87 compounds are retold here after the Kinase Knowledgebase extract (Sharma et al. 2016).

Structures are written as SMILES.

Chain of MAPK14 (human) (Q16539 whole entry, looked up): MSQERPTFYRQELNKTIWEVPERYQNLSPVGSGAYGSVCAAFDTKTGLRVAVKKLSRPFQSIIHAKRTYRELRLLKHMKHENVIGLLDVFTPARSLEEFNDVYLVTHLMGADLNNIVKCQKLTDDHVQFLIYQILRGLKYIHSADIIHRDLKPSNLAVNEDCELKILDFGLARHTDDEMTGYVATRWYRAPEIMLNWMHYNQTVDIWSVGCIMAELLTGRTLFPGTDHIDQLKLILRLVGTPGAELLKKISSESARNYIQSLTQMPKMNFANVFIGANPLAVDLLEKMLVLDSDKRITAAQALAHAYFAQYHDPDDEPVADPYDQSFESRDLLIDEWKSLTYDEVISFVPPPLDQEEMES

The experiment has as its target MAPK14 (human) (UniProt Q16539). Kind of experiment: Inhibition of MAPK14 Kinase Activity.
In turn, `Nc1nc(-c2ccccc2F)c2ccc(=O)n(-c3c(F)cccc3F)c2n1` had an IC50 of under 10 µM.
Then `Cc1cc(F)ccc1-c1nc(NCC2CCS(=O)(=O)C2)nc2c1ccc(=O)n2-c1c(F)cccc1F` (configuration not stated), with under 10 µM.
Then `Cc1cc(F)ccc1-c1nc(N(C)CCO)nc2c1ccc(=O)n2-c1c(F)cccc1F`, with under 10 µM.
The value for `O=C(O)CNc1nc(-c2ccccc2Cl)c2ccc(=O)n(-c3ccccc3Cl)c2n1` was under 10 µM; that for `CSc1nc(-c2ccc(F)cc2C)c2ccc(=O)n(C3CC3)c2n1` was under 10 µM.
With `Cc1cc(F)ccc1-c1nc(NC[C@@H](C)O)nc2c1ccc(=O)n2-c1c(F)cccc1F`, the half-inhibitory concentration (IC50) was under 10 µM.
Then `Cc1cc(F)ccc1-c1nc(S(C)(=O)=O)nc2c1ccc(=O)n2-c1ccccc1C`, with under 10 µM; and `Cc1cc(F)ccc1-c1nc(NC2CCOCC2)nc2c1ccc(=O)n2-c1ccccc1C`, with under 10 µM.
Then `O=c1ccc2c(-c3ccccc3F)nc(NC(CO)CO)nc2n1CC1CC1`, with under 10 µM; and `Cc1cc(F)ccc1-c1nc(NS(C)(=O)=O)nc2c1ccc(=O)n2-c1c(F)cccc1F`, with under 10 µM; and `Cc1cc(F)ccc1-c1nc(O)nc2c1ccc(=O)n2-c1c(F)cccc1F`, with under 10 µM.
The compound `Cc1cc(F)ccc1-c1nc(NCC(C)(C)O)nc2c1ccc(=O)n2C1CCCCC1` gave a half-inhibitory concentration (IC50) of under 10 µM.
`Cc1cc(F)ccc1-c1nc(OC(CO)CO)nc2c1ccc(=O)n2-c1c(F)cccc1F` registered an IC50 of under 10 µM.
In the case of `Cc1cc(F)ccc1-c1nc(NC(C)(CO)CO)nc2c1ccc(=O)n2-c1ccccc1C`, the IC50 was under 10 µM.
Then `Cc1cc(F)ccc1-c1nc(NCC(=O)N2CC(O)C2)nc2c1ccc(=O)n2-c1c(F)cccc1F`, with under 10 µM; and `Cc1cc(F)ccc1-c1nc(NCC(C)(C)C)nc2c1ccc(=O)n2-c1ccccc1F`, with under 10 µM.
Then `CS(=O)(=O)Nc1nc(-c2ccccc2F)c2ccc(=O)n(-c3ccccc3F)c2n1`, with under 10 µM; and `Cc1cc(F)ccc1-c1nc(N[C@H]2CCC[C@@H]2O)nc2c1ccc(=O)n2-c1c(F)cccc1F`, with under 10 µM.
The value for `CNc1nc(-c2ccc(F)cc2C)c2ccc(=O)n(-c3c(F)cccc3F)c2n1` was under 10 µM; that for `Cc1cc(F)ccc1-c1nc(NCCO)nc2c1ccc(=O)n2-c1c(C)cccc1C` was under 10 µM.
In turn, `Cc1cc(F)ccc1-c1nc(NC[C@@H](C)O)nc2c1ccc(=O)n2C1CCCCC1` yielded a 50% inhibitory concentration (IC50) of under 10 µM.
With `O=c1ccc2c(-c3ccccc3Cl)nc(NC3CCNCC3)nc2n1-c1ccccc1Cl`, the IC50 was under 10 µM.
Turning to `COCCNC(=O)CNc1nc(-c2ccc(F)cc2C)c2ccc(=O)n(-c3c(F)cccc3F)c2n1`, the IC50 is under 10 µM.
`CC(=O)NCCOc1nc(-c2ccc(F)cc2C)c2ccc(=O)n(-c3c(F)cccc3F)c2n1` gave an IC50 of under 10 µM.
Then `Cc1cc(F)ccc1-c1nc(NCCN)nc2c1ccc(=O)n2-c1c(F)cccc1F`, with under 10 µM; and `CCn1c(=O)ccc2c(-c3ccccc3F)nc(SC)nc21`, with under 10 µM.
Then `Cc1cc(F)ccc1-c1nc(NC[C@H](C)O)nc2c1ccc(=O)n2-c1ccccc1F`, with under 10 µM.
Then `Cc1cc(F)ccc1-c1nc(NCCC(=N)NO)nc2c1ccc(=O)n2-c1c(F)cccc1F`, with under 10 µM; and `CCC(CC)n1c(=O)ccc2c(-c3ccccc3Cl)nc(NC3CCN(C)CC3)nc21`, with under 10 µM; and `Cc1cc(F)ccc1-c1nc(N[C@@H]2CCC[C@@H]2C(N)=O)nc2c1ccc(=O)n2-c1c(F)cccc1F`, with under 10 µM.
Compound `CSc1nc(-c2ccc(F)cc2C)c2ccc(=O)n(-c3ccccc3F)c2n1` came in with an IC50 of under 10 µM.
The value for `CS(=O)(=O)c1nc(-c2ccccc2)c2ccc(=O)n(-c3ccccc3)c2n1` was under 10 µM; that for `COC(=O)CNc1nc(-c2ccc(F)cc2C)c2ccc(=O)n(-c3c(F)cccc3F)c2n1` was under 10 µM.
The value for `Cc1cc(F)ccc1-c1nc(NCCCl)nc2c1ccc(=O)n2-c1c(F)cccc1F` was under 10 µM; that for `Cc1cc(F)ccc1-c1nc(NC[C@H](C)O)nc2c1ccc(=O)n2C1CCCCC1` was under 10 µM.
Then `Cc1cc(F)ccc1-c1nc(NCc2nnn[nH]2)nc2c1ccc(=O)n2-c1c(F)cccc1F`, with under 10 µM; and `Cc1cc(F)ccc1-c1nc(NCCO)nc2c1ccc(=O)n2C(C)C`, with under 10 µM.
Turning to `CCOC(=O)CNc1nc(-c2ccccc2Cl)c2ccc(=O)n(-c3ccccc3Cl)c2n1`, the IC50 was under 10 µM.
The value for `CCN(CC)CCNc1nc(-c2ccccc2)c2ccc(=O)n(-c3ccccc3)c2n1` was under 10 µM; that for `Cc1cc(F)ccc1-c1nc(NC(=O)C2CC2)nc2c1ccc(=O)n2-c1c(F)cccc1F` was under 10 µM.
The value for `Cc1cc(F)ccc1-c1nc(NC[C@@H](C)O)nc2c1ccc(=O)n2-c1ccccc1F` was under 10 µM; that for `CCC(CC)n1c(=O)ccc2c(-c3ccccc3Cl)nc(N[C@H](C)CO)nc21` was under 10 µM; that for `Cc1cc(F)ccc1-c1nc(NCCCN2CCCC2=O)nc2c1ccc(=O)n2-c1c(F)cccc1F` was under 10 µM.
The value for `Cc1cc(F)ccc1-c1nc(NCC(=O)N(C)C)nc2c1ccc(=O)n2-c1c(F)cccc1F` was under 10 µM; that for `CC(CO)(CO)Nc1nc(-c2ccccc2Cl)c2ccc(=O)n(-c3ccccc3Cl)c2n1` was under 10 µM; that for `Cc1cc(F)ccc1-c1nc(NCC(=O)O)nc2c1ccc(=O)n2-c1c(F)cccc1F` was under 10 µM.
In turn, `CCOC(=O)NCCNc1nc(-c2ccc(F)cc2C)c2ccc(=O)n(-c3c(F)cccc3F)c2n1` gave an IC50 of under 10 µM.
The value for `Cc1cc(F)ccc1-c1nc(O)nc2c1ccc(=O)n2-c1ccccc1F` was under 10 µM; that for `Cc1cc(F)ccc1-c1nc(N[C@H]2CC[C@H](O)CC2)nc2c1ccc(=O)n2-c1c(F)cccc1F` was under 10 µM; that for `O=c1ccc2c(-c3ccccc3Cl)nc(NC(CO)CO)nc2n1-c1ccccc1Cl` was under 10 µM.
Compound `CN(C)CCNc1nc(-c2ccccc2Cl)c2ccc(=O)n(-c3ccccc3Cl)c2n1` displayed a half-inhibitory concentration (IC50) of under 10 µM.
Then `CCCCOc1nc(-c2ccc(F)cc2C)c2ccc(=O)n(-c3c(F)cccc3F)c2n1`, with under 10 µM; and `Cc1cc(F)ccc1-c1nc(NCCC#N)nc2c1ccc(=O)n2-c1c(F)cccc1F`, with under 10 µM; and `Cc1cc(F)ccc1-c1nc(NC(CO)(CO)CO)nc2c1ccc(=O)n2-c1c(F)cccc1F`, with under 10 µM.
`Cc1cc(F)ccc1-c1nc(NCCNC(=O)Nc2ccccc2)nc2c1ccc(=O)n2-c1c(F)cccc1F` gave a half-maximal inhibitory concentration (IC50) of under 10 µM.
The compound `Cc1cc(F)ccc1-c1nc(N[C@@H](C)CO)nc2c1ccc(=O)n2-c1c(F)cccc1F` returned a half-inhibitory concentration (IC50) of under 10 µM.
Then `CCC(CC)n1c(=O)ccc2c(-c3ccc(F)cc3C)nc(OC)nc21`, with under 10 µM; and `CCNc1nc(-c2ccc(F)cc2C)c2ccc(=O)n(-c3ccccc3C)c2n1`, with under 10 µM.
The value for `CSCCCNc1nc(-c2ccc(F)cc2C)c2ccc(=O)n(-c3c(F)cccc3F)c2n1` was under 10 µM; that for `CCC(CC)n1c(=O)ccc2c(-c3ccccc3Cl)nc(NCCN)nc21` was under 10 µM; that for `CSc1nc(-c2ccc(F)cc2C)c2ccc(=O)n(-c3ccccc3C)c2n1` was under 10 µM.
In the case of `Cc1cc(F)ccc1-c1nc(NCC(N)=O)nc2c1ccc(=O)n2-c1c(F)cccc1F`, the IC50 was under 10 µM.
The value for `Cc1cc(F)ccc1-c1nc(NCC(=O)NC2CC2)nc2c1ccc(=O)n2-c1c(F)cccc1F` was under 10 µM; that for `CCC(C)n1c(=O)ccc2c(-c3ccc(F)cc3C)nc(SC)nc21` (configuration not stated) was under 10 µM; that for `CN1CCC(Nc2nc(-c3ccccc3Cl)c3ccc(=O)n(-c4ccccc4Cl)c3n2)CC1` was under 10 µM.
The compound `Cc1cc(F)ccc1-c1nc(NC2CCOCC2)nc2c1ccc(=O)n2-c1c(F)cccc1F` returned a concentration for half-maximal inhibition (IC50) of under 10 µM.
Then `Cc1cc(F)ccc1-c1nc(N[C@@H](C)CO)nc2c1ccc(=O)n2-c1ccccc1C`, with under 10 µM.
Then `Cc1cc(F)ccc1-c1nc(NC(C)(C)CO)nc2c1ccc(=O)n2-c1c(F)cccc1F`, with under 10 µM; and `Cc1cc(F)ccc1-c1nc(NCCNS(C)(=O)=O)nc2c1ccc(=O)n2-c1c(F)cccc1F`, with under 10 µM.
Then `Cc1cc(F)ccc1-c1nc(S(C)(=O)=O)nc2c1ccc(=O)n2-c1c(C)cccc1C`, with under 10 µM.
For the compound `Cc1cc(F)ccc1-c1nc(NC[C@H](C)O)nc2c1ccc(=O)n2-c1ccccc1C`, the half-inhibitory concentration (IC50) is under 10 µM.
Then `CC(C)n1c(=O)ccc2c(-c3ccccc3F)nc(NC(CO)CO)nc21`, with under 10 µM.
Then `Cc1cc(F)ccc1-c1nc(NC2CCC(O)CC2)nc2c1ccc(=O)n2-c1ccccc1F` (configuration not stated), with under 10 µM.
`Cc1cc(F)ccc1-c1nc(OCC(CO)CO)nc2c1ccc(=O)n2-c1c(F)cccc1F` showed a concentration for half-maximal inhibition (IC50) of under 10 µM.
As to `Cc1cc(F)ccc1-c1nc(NCC(F)(F)F)nc2c1ccc(=O)n2-c1ccccc1F`, the IC50 was under 10 µM.
The value for `COCCNc1nc(-c2ccc(F)cc2C)c2ccc(=O)n(-c3c(F)cccc3F)c2n1` was under 10 µM; that for `CCNC(=O)NCCNc1nc(-c2ccc(F)cc2C)c2ccc(=O)n(-c3c(F)cccc3F)c2n1` was under 10 µM.
Then `CSc1nc(-c2ccccc2Cl)c2ccc(=O)n(-c3ccccc3Cl)c2n1`, with under 10 µM; and `Cc1cc(F)ccc1-c1nc(NC(CO)CO)nc2c1ccc(=O)n2-c1c(F)cccc1F`, with under 10 µM.
In turn, `Cc1cc(F)ccc1-c1nc(NC(C)(C)CO)nc2c1ccc(=O)n2-c1ccccc1C` returned a half-inhibitory concentration (IC50) of under 10 µM.
In the case of `Cc1cc(F)ccc1-c1nc(NCCNC(=O)Nc2cccc(F)c2)nc2c1ccc(=O)n2-c1c(F)cccc1F`, the 50% inhibitory concentration (IC50) was under 10 µM.
Then `Cc1cc(F)ccc1-c1nc(NCCO)nc2c1ccc(=O)n2-c1ccccc1C`, with under 10 µM; and `Cc1cc(F)ccc1-c1nc(NC(CO)CO)nc2c1ccc(=O)n2C(C)C`, with under 10 µM; and `Cc1cc(F)ccc1-c1nc(N[C@@H](C)CO)nc2c1ccc(=O)n2-c1ccccc1F`, with under 10 µM.
Compound `Cc1cc(F)ccc1-c1nc(NCCNC(=O)C(C)(C)C)nc2c1ccc(=O)n2-c1c(F)cccc1F` showed a half-maximal inhibitory concentration (IC50) of under 10 µM.
Then `CCNc1nc(-c2ccc(F)cc2C)c2ccc(=O)n(-c3c(F)cccc3F)c2n1`, with under 10 µM; and `Cc1cc(F)ccc1-c1nc(N(C(=O)C2CC2)C(=O)C2CC2)nc2c1ccc(=O)n2-c1c(F)cccc1F`, with under 10 µM.
